# Reference: the supplement of paper PMC10307832
# Compound: N[C@@H]1CCCN(c2c(/C=C3\SC(=O)NC3=O)cccc2-c2ccccc2)C1 [AZD1208] + O=C(CCCCCCC(=O)Nc1ccccc1)NO [Vorinostat] (partner 1 µM)
# Assay: relative viability (nuclei count vs DMSO), 5 days (fraction); higher = more cells survive
# Details: first compound 0.08 µM
# Procedure, shortened: (§1)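 Cells from lung cancer lines were seeded into 1536-well plates and, one day later, dosed by pin tool. Treatments were either a single drug or a fixed dose of an anchor drug with five library-drug doses (not always all listed) in √10 steps. After 5 days, nuclei were stained in a one-step fixation (final 0.05% Triton X-100, 1% formaldehyde, 1 ug/ml Hoechst) and counted on 4× images, and relative viability is the treated-to-vehicle nuclei ratio, as the median of duplicate plates.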
row,Cell Line,relative viability
1,EPLC-272H,0.405
2,NCI-H23,0.508
3,NCI-H1355,0.638
4,NCI-H322M,0.934
5,NCI-H1437,0.805
6,NCI-H1755,0.79
7,NCI-H2085,0.796
8,HCC-15,0.805
9,PC-3 [JPC-3],1.13
10,EKVX,0.766
11,LC-2-ad,0.716
12,NCI-H1975,0.708
13,SK-LU-1,0.776
14,NCI-H661,0.796
15,RERF-LC-KJ,0.646

# Same assay, conditions: first compound 0.253 µM
row,Cell Line,relative viability
1,NCI-H460,0.858
2,NCI-H1734,0.739
3,NCI-H520,0.73
4,NCI-H2405,1.04
5,SW 1573,0.862
6,201T,1.01
7,NCI-H1915,0.512
8,HCC-827,0.904
9,LXF-289,0.849
10,NCI-H2347,0.767
11,NCI-H650,0.379
12,CAL-12T,0.814
13,NCI-H1651,0.602
14,EPLC-272H,0.505
15,NCI-H23,0.629
16,NCI-H1355,0.672
17,NCI-H322M,0.868
18,NCI-H1437,0.93
19,NCI-H1755,0.893
20,NCI-H2085,0.821
21,HCC-15,0.859
22,PC-3 [JPC-3],0.746
23,EKVX,0.583
24,LC-2-ad,0.703
25,NCI-H1975,0.799
26,SK-LU-1,0.785
27,NCI-H661,0.775
28,RERF-LC-KJ,0.668

# Same assay, conditions: first compound 0.8 µM
row,Cell Line,relative viability
1,NCI-H460,0.732
2,NCI-H1734,0.756
3,NCI-H520,0.711
4,NCI-H2405,0.965
5,SW 1573,0.456
6,201T,0.967
7,NCI-H1915,0.525
8,HCC-827,0.861
9,LXF-289,0.701
10,NCI-H2347,0.533
11,NCI-H650,0.47
12,CAL-12T,0.565
13,EPLC-272H,0.38
14,NCI-H23,0.614
15,NCI-H1355,0.558
16,NCI-H1437,0.933
17,NCI-H1755,0.604
18,NCI-H2085,0.749
19,HCC-15,0.834
20,PC-3 [JPC-3],0.857
21,EKVX,0.744
22,LC-2-ad,0.685
23,NCI-H1975,0.705
24,SK-LU-1,0.73
25,NCI-H661,0.827
26,RERF-LC-KJ,0.7

# Same assay, conditions: first compound 2.53 µM
row,Cell Line,relative viability
1,NCI-H460,0.708
2,NCI-H1734,0.663
3,NCI-H520,0.768
4,NCI-H2405,1.01
5,SW 1573,0.479
6,201T,0.949
7,NCI-H1915,0.464
8,HCC-827,0.839
9,LXF-289,0.715
10,NCI-H2347,0.599
11,NCI-H650,0.414
12,CAL-12T,0.653
13,NCI-H1651,0.561
14,EPLC-272H,0.333
15,NCI-H23,0.602
16,NCI-H1355,0.603
17,NCI-H322M,0.837
18,NCI-H1437,1
19,NCI-H1755,0.685
20,NCI-H2085,0.82
21,HCC-15,0.83
22,PC-3 [JPC-3],0.909
23,EKVX,0.735
24,LC-2-ad,0.704
25,NCI-H1975,0.735
26,SK-LU-1,0.783
27,NCI-H661,0.82
28,RERF-LC-KJ,0.658

# Same assay, conditions: first compound 8 µM
row,Cell Line,relative viability
1,NCI-H460,0.737
2,NCI-H1734,0.599
3,NCI-H520,0.449
4,NCI-H2405,0.932
5,SW 1573,0.404
6,201T,0.952
7,NCI-H1915,0.434
8,HCC-827,0.78
9,LXF-289,0.832
10,NCI-H2347,0.803
11,NCI-H650,0.351
12,CAL-12T,0.439
13,NCI-H1651,0.556
14,EPLC-272H,0.443
15,NCI-H23,0.5
16,NCI-H1355,0.544
17,NCI-H322M,0.821
18,NCI-H1437,0.857
19,NCI-H1755,0.555
20,NCI-H2085,0.751
21,HCC-15,0.692
22,PC-3 [JPC-3],0.926
23,EKVX,0.763
24,LC-2-ad,0.669
25,NCI-H1975,0.767
26,SK-LU-1,0.736
27,NCI-H661,0.917
28,RERF-LC-KJ,0.598

# Compound: N[C@@H]1CCCN(c2c(/C=C3\SC(=O)NC3=O)cccc2-c2ccccc2)C1 [AZD1208] + Cc1nc(Nc2ncc(C(=O)Nc3c(C)cccc3Cl)s2)cc(N2CCN(CCO)CC2)n1 [Dasatinib] (partner 0.075 µM)
# Assay: as above
# Details: first compound 0.08 µM
# Procedure, shortened: as §1
row,Cell Line,relative viability
1,NCI-H460,0.54
2,NCI-H1734,0.41
3,NCI-H520,0.151
4,NCI-H2405,0.205
5,SW 1573,0.404
6,201T,0.579
7,NCI-H1915,0.305
8,HCC-827,0.286
9,LXF-289,0.227
10,NCI-H2347,0.306
11,NCI-H650,0.509
12,CAL-12T,0.316
13,NCI-H1651,0.406
14,EPLC-272H,0.3
15,NCI-H23,0.641
16,NCI-H1355,0.732
17,NCI-H322M,0.261
18,NCI-H1437,0.495
19,NCI-H1755,0.422
20,NCI-H2085,0.27
21,HCC-15,0.57
22,PC-3 [JPC-3],1.13
23,EKVX,0.637
24,LC-2-ad,0.525
25,NCI-H1975,0.388
26,SK-LU-1,0.162
27,NCI-H661,0.95
28,RERF-LC-KJ,0.685

# Same assay, conditions: first compound 0.253 µM
row,Cell Line,relative viability
1,NCI-H460,0.562
2,NCI-H1734,0.435
3,NCI-H520,0.196
4,NCI-H2405,0.198
5,SW 1573,0.537
6,201T,0.557
7,NCI-H1915,0.298
8,HCC-827,0.297
9,LXF-289,0.175
10,NCI-H2347,0.339
11,NCI-H650,0.451
12,CAL-12T,0.393
13,NCI-H1651,0.461
14,EPLC-272H,0.363
15,NCI-H23,0.887
16,NCI-H1355,0.55
17,NCI-H322M,0.235
18,NCI-H1437,0.297
19,NCI-H1755,0.407
20,NCI-H2085,0.217
21,HCC-15,0.487
22,PC-3 [JPC-3],1.11
23,EKVX,0.245
24,LC-2-ad,0.464
25,NCI-H1975,0.363
26,SK-LU-1,0.14
27,NCI-H661,0.98
28,RERF-LC-KJ,0.608

# Same assay, conditions: first compound 0.8 µM
row,Cell Line,relative viability
1,NCI-H460,0.473
2,NCI-H1734,0.426
3,NCI-H520,0.173
4,NCI-H2405,0.202
5,SW 1573,0.438
6,201T,0.522
7,NCI-H1915,0.296
8,HCC-827,0.263
9,LXF-289,0.195
10,NCI-H2347,0.339
11,NCI-H650,0.385
12,CAL-12T,0.329
13,NCI-H1651,0.38
14,EPLC-272H,0.286
15,NCI-H23,0.668
16,NCI-H1355,0.628
17,NCI-H322M,0.23
18,NCI-H1437,0.337
19,NCI-H1755,0.345
20,NCI-H2085,0.306
21,HCC-15,0.489
22,PC-3 [JPC-3],1.01
23,EKVX,0.51
24,LC-2-ad,0.465
25,NCI-H1975,0.36
26,SK-LU-1,0.154
27,NCI-H661,0.864
28,RERF-LC-KJ,0.546

# Same assay, conditions: first compound 2.53 µM
row,Cell Line,relative viability
1,NCI-H460,0.365
2,NCI-H1734,0.393
3,NCI-H520,0.154
4,NCI-H2405,0.21
5,SW 1573,0.586
6,201T,0.504
7,NCI-H1915,0.294
8,HCC-827,0.255
9,LXF-289,0.181
10,NCI-H2347,0.321
11,NCI-H650,0.379
12,CAL-12T,0.48
13,NCI-H1651,0.319
14,EPLC-272H,0.305
15,NCI-H23,0.714
16,NCI-H1355,0.641
17,NCI-H322M,0.224
18,NCI-H1437,0.296
19,NCI-H1755,0.339
20,NCI-H2085,0.218
21,HCC-15,0.492
22,PC-3 [JPC-3],1.05
23,EKVX,0.498
24,LC-2-ad,0.51
25,NCI-H1975,0.361
26,SK-LU-1,0.168
27,NCI-H661,0.777
28,RERF-LC-KJ,0.595

# Same assay, conditions: first compound 8 µM
row,Cell Line,relative viability
1,NCI-H460,0.334
2,NCI-H1734,0.307
3,NCI-H520,0.178
4,NCI-H2405,0.184
5,SW 1573,0.319
6,201T,0.51
7,NCI-H1915,0.239
8,HCC-827,0.247
9,LXF-289,0.15
10,NCI-H2347,0.257
11,NCI-H650,0.338
12,CAL-12T,0.464
13,NCI-H1651,0.307
14,EPLC-272H,0.252
15,NCI-H23,0.614
16,NCI-H1355,0.48
17,NCI-H322M,0.228
18,NCI-H1437,0.337
19,NCI-H1755,0.209
20,NCI-H2085,0.262
21,HCC-15,0.368
22,PC-3 [JPC-3],0.957
23,EKVX,0.48
24,LC-2-ad,0.459
25,NCI-H1975,0.381
26,SK-LU-1,0.133
27,NCI-H661,0.902
28,RERF-LC-KJ,0.483
